{
  "source": "patent US20030104507A1",
  "about": "“Method for detection of ATP” (priority 2001, published 2003)",
  "key": {"[1]": {"biological_target": "T1, LucPpy (Photinus pyralis, UniProt P08659)", "T1 construct": "purchased Promega E170A", "test": "Stability of reagent composition with LucPpy and detergent (RT, pH 7.0)", "assay_type": "biochemical", "conditions": "LucPpy", "text": "(§1) The detergents used for inhibition of endogenous ATPase activity in a sample also affect activity of luciferase. […] It is ultimately the extended stability of a reagent composition, comprising an ATPase inhibitor and a luciferase enzyme, which provides a composition useful for measuring ATP, in a sample or samples, over an extended period of time.\n(§2) In this experiment, the stability of a reagent composition comprising wild type LucPpy was compared to the stability of a reagent composition comprising LucPpe2m146 at about 23° C. (room temperature). The various reagent compositions had varying detergent concentrations.\n(§3) Two solutions were created as listed below. One contained the luciferase, luciferin, MgSO4, and buffer (reagent composition). The other solution contained media plus ATP (media solution).\n(§4) 50 μg/ml enzyme (LucPpy is Promega catalog #E170A)\n(§5) Detergent (at various concentrations, see table below)\n(§6) For each reagent composition, all ingredients except the luciferase enzyme were assembled; the enzyme was then added immediately before the first luminescence reading was taken. Immediately after addition of enzyme to each reagent composition and for various timepoints thereafter, 100 μl aliquots of the reagent composition were added to wells of a 96-well microtitre luminometer plate in triplicate. To these were added 100 μl Media Solution containing the ATP. Luminescence was then immediately read on a Dynex MLX microtitreplate luminometer, 0.5 second reads per well. The average relative light unit values as well as the reaction half lives are listed below in Table I and the percent of original luminescence remaining at each timepoint is listed in Table J below. The timepoint at the top of the column indicates the time at which the first rlu measurement for the samples in that column was read. […] Times listed in Table I are the same for Table J. The values for sulfobetaine and for CTAB were generated on different days, they are presented with the control values generated in the same experiment."}, "[2]": {"tested_on": "LucPpe2m146", "test": "Stability of reagent composition with LucPpe2m146 and detergent (RT, pH 7.0)", "assay_type": "biochemical, Photuris pennsylvanica", "text": "as §1, §2, §3, §4, §5, §6"}},
  "data": [
    {"molecule": "CCCCCCCCCCCCCCCC[N+](C)(C)C.[Br-]", "note": "[CTAB, Cetyltrimethylammonium bromide]", "values": [
      {"measurement": "Average Relative Light Units", "setting": "[1]; 0.02%, 0.75 min (head r25)", "result": 1869.80, "unit": "rlu"},
      {"measurement": "Percent of Luminescence Remaining", "setting": "[1]; 0.02%, 0.75 min (times of Table I r25)", "result": 100.00, "unit": "%"},
      {"measurement": "Average Relative Light Units", "setting": "[1]; 0.02%, 6 min (head r25)", "result": 79.719, "unit": "rlu"},
      {"measurement": "Percent of Luminescence Remaining", "setting": "[1]; 0.02%, 6 min (times of Table I r25)", "result": 0.09, "unit": "%"},
      {"measurement": "Percent of Luminescence Remaining", "setting": "[1]; 0.02%, 16 min (times of Table I r25, r31)", "result": 0.03, "unit": "%"},
      {"measurement": "Average Relative Light Units", "setting": "[1]; 0.02%, (16 min) (head r25)", "result": 0.099, "unit": "rlu"},
      {"measurement": "Average Relative Light Units", "setting": "[1]; 0.05%, 0.75 min (head r25)", "result": 1134.53, "unit": "rlu"},
      {"measurement": "Percent of Luminescence Remaining", "setting": "[1]; 0.05%, 0.75 min (times of Table I r25)", "result": 100.00, "unit": "%"},
      {"measurement": "Average Relative Light Units", "setting": "[1]; 0.05%, 6 min (head r25)", "result": 0.563, "unit": "rlu"},
      {"measurement": "Percent of Luminescence Remaining", "setting": "[1]; 0.05%, 6 min (times of Table I r25)", "result": 0.05, "unit": "%"},
      {"measurement": "Average Relative Light Units", "setting": "[1]; 0.05%, 20 min (head r25)", "result": 0.015, "unit": "rlu"},
      {"measurement": "Percent of Luminescence Remaining", "setting": "[1]; 0.05%, 20 min (times of Table I r25)", "result": 0.00, "unit": "%"},
      {"measurement": "Average Relative Light Units", "setting": "[1]; 0.1%, 0.75 min (head r25)", "result": 94.603, "unit": "rlu"},
      {"measurement": "Percent of Luminescence Remaining", "setting": "[1]; 0.1%, 0.75 min (times of Table I r25)", "result": 100.00, "unit": "%"},
      {"measurement": "Average Relative Light Units", "setting": "[1]; 0.1%, 6 min (head r25)", "result": 0.020, "unit": "rlu"},
      {"measurement": "Percent of Luminescence Remaining", "setting": "[1]; 0.1%, 6 min (times of Table I r25)", "result": 0.02, "unit": "%"},
      {"measurement": "Average Relative Light Units", "setting": "[2]; LucPpe2m146, 0.02%, 1.0 min (head r61)", "result": 11019.8, "unit": "rlu"},
      {"measurement": "Percent of Luminescence Remaining", "setting": "[2]; LucPpe2m146, 0.02%, 1.0 min (times of Table I r61)", "result": 100.00, "unit": "%"},
      {"measurement": "Average Relative Light Units", "setting": "[2]; LucPpe2m146, 0.02%, 37 min (head r61)", "result": 2051.7, "unit": "rlu"},
      {"measurement": "Percent of Luminescence Remaining", "setting": "[2]; LucPpe2m146, 0.02%, 37 min (times of Table I r61)", "result": 18.62, "unit": "%"},
      {"measurement": "Average Relative Light Units", "setting": "[2]; LucPpe2m146, 0.02%, 67 min (head r61)", "result": 1087.4, "unit": "rlu"},
      {"measurement": "Percent of Luminescence Remaining", "setting": "[2]; LucPpe2m146, 0.02%, 67 min (times of Table I r61)", "result": 9.87, "unit": "%"},
      {"measurement": "Average Relative Light Units", "setting": "[2]; LucPpe2m146, 0.02%, 116 min (head r61)", "result": 6117.8, "unit": "rlu"},
      {"measurement": "Percent of Luminescence Remaining", "setting": "[2]; LucPpe2m146, 0.02%, 116 min (times of Table I r61)", "result": 55.52, "unit": "%"},
      {"measurement": "Average Relative Light Units", "setting": "[2]; LucPpe2m146, 0.02%, 177 min (head r61)", "result": 16020.8, "unit": "rlu"},
      {"measurement": "Percent of Luminescence Remaining", "setting": "[2]; LucPpe2m146, 0.02%, 177 min (times of Table I r61)", "result": 145.38, "unit": "%"},
      {"measurement": "Average Relative Light Units", "setting": "[2]; LucPpe2m146, 0.02%, 243 min (head r61)", "result": 16368.5, "unit": "rlu"},
      {"measurement": "Percent of Luminescence Remaining", "setting": "[2]; LucPpe2m146, 0.02%, 243 min (times of Table I r61)", "result": 148.54, "unit": "%"},
      {"measurement": "Average Relative Light Units", "setting": "[2]; LucPpe2m146, 0.05%, 1.0 min (head r61)", "result": 11992.5, "unit": "rlu"},
      {"measurement": "Percent of Luminescence Remaining", "setting": "[2]; LucPpe2m146, 0.05%, 1.0 min (times of Table I r61)", "result": 100.00, "unit": "%"},
      {"measurement": "Average Relative Light Units", "setting": "[2]; LucPpe2m146, 0.05%, 37 min (head r61)", "result": 301.5, "unit": "rlu"},
      {"measurement": "Percent of Luminescence Remaining", "setting": "[2]; LucPpe2m146, 0.05%, 37 min (times of Table I r61)", "result": 2.51, "unit": "%"},
      {"measurement": "Average Relative Light Units", "setting": "[2]; LucPpe2m146, 0.05%, 67 min (head r61)", "result": 131.7, "unit": "rlu"},
      {"measurement": "Percent of Luminescence Remaining", "setting": "[2]; LucPpe2m146, 0.05%, 67 min (times of Table I r61)", "result": 1.10, "unit": "%"},
      {"measurement": "Average Relative Light Units", "setting": "[2]; LucPpe2m146, 0.05%, 116 min (head r61)", "result": 4219.7, "unit": "rlu"},
      {"measurement": "Percent of Luminescence Remaining", "setting": "[2]; LucPpe2m146, 0.05%, 116 min (times of Table I r61)", "result": 35.19, "unit": "%"},
      {"measurement": "Average Relative Light Units", "setting": "[2]; LucPpe2m146, 0.05%, 177 min (head r61)", "result": 16910.8, "unit": "rlu"},
      {"measurement": "Percent of Luminescence Remaining", "setting": "[2]; LucPpe2m146, 0.05%, 177 min (times of Table I r61)", "result": 141.01, "unit": "%"},
      {"measurement": "Average Relative Light Units", "setting": "[2]; LucPpe2m146, 0.05%, 243 min (head r61)", "result": 17340.0, "unit": "rlu"},
      {"measurement": "Percent of Luminescence Remaining", "setting": "[2]; LucPpe2m146, 0.05%, 243 min (times of Table I r61)", "result": 144.5, "unit": "%"},
      {"measurement": "Average Relative Light Units", "setting": "[2]; LucPpe2m146, 0.1%, 1.0 min (head r61)", "result": 1047.8, "unit": "rlu"},
      {"measurement": "Percent of Luminescence Remaining", "setting": "[2]; LucPpe2m146, 0.1%, 1.0 min (times of Table I r61)", "result": 100.00, "unit": "%"},
      {"measurement": "Average Relative Light Units", "setting": "[2]; LucPpe2m146, 0.1%, 37 min (head r61)", "result": 5.3, "unit": "rlu"},
      {"measurement": "Percent of Luminescence Remaining", "setting": "[2]; LucPpe2m146, 0.1%, 37 min (times of Table I r61)", "result": 0.51, "unit": "%"},
      {"measurement": "Average Relative Light Units", "setting": "[2]; LucPpe2m146, 0.1%, 67 min (head r61)", "result": 5.2, "unit": "rlu"},
      {"measurement": "Percent of Luminescence Remaining", "setting": "[2]; LucPpe2m146, 0.1%, 67 min (times of Table I r61)", "result": 0.50, "unit": "%"},
      {"measurement": "Average Relative Light Units", "setting": "[2]; LucPpe2m146, 0.1%, 116 min (head r61)", "result": 6.2, "unit": "rlu"},
      {"measurement": "Percent of Luminescence Remaining", "setting": "[2]; LucPpe2m146, 0.1%, 116 min (times of Table I r61)", "result": 0.59, "unit": "%"},
      {"measurement": "Average Relative Light Units", "setting": "[2]; LucPpe2m146, 0.1%, 177 min (head r61)", "result": 6.0, "unit": "rlu"},
      {"measurement": "Percent of Luminescence Remaining", "setting": "[2]; LucPpe2m146, 0.1%, 177 min (times of Table I r61)", "result": 0.58, "unit": "%"},
      {"measurement": "Average Relative Light Units", "setting": "[2]; LucPpe2m146, 0.1%, 243 min (head r61)", "result": 5.7, "unit": "rlu"},
      {"measurement": "Percent of Luminescence Remaining", "setting": "[2]; LucPpe2m146, 0.1%, 243 min (times of Table I r61)", "result": 0.55, "unit": "%"}
    ]}
  ]
}
